Test results: doi:10.1101/277434v2 (biorxiv, 2024)

Biological target: IRAK4 (Homo sapiens, UniProt Q9NWZ3)
Experiment: biochemical

IRAK4, sequence (Q9NWZ3 whole entry): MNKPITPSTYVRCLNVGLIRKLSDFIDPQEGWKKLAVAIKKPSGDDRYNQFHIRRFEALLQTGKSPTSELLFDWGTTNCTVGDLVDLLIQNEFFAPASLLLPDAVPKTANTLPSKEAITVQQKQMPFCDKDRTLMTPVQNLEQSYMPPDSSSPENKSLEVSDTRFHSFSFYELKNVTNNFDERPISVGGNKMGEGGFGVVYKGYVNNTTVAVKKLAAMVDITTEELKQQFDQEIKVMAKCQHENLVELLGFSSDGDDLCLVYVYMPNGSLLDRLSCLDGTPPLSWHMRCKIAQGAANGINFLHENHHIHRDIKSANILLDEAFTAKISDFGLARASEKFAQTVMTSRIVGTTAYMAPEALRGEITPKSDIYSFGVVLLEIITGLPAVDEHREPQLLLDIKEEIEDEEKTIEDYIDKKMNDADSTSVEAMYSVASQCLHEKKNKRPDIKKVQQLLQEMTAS

CN(C)C [TMA]
IC50: 3.4 µM
